In paper PMC10150366, “Discovery of an In Vivo Chemical Probe for BCL6 Inhibition by Optimization of Tricyclic Quinolinones” (Journal of Medicinal Chemistry, 2023):
Where “and” joins values, the source holds several entries; their conditions need not be identical. Equal values may be shown once. Read-outs that look alike come from different tables or passages of the source.

Tests used:
[1] = biological target: DAT (Homo sapiens, UniProt Q01959); assay: SAFETYscan Transporter DAT Blocker; type: cell-based
From the text: (§1) Supplement jm3c00155_si_002.xlsx, sheet "SAFETYScan" | column: RC50 (uM); Max Response

[2] = biological target: DRD2S (Homo sapiens, UniProt P14416); assay: SAFETYscan cAMP DRD2S Agonist; type: cell-based
Sequence of DRD2S (P14416 1-414 isoform P14416-2): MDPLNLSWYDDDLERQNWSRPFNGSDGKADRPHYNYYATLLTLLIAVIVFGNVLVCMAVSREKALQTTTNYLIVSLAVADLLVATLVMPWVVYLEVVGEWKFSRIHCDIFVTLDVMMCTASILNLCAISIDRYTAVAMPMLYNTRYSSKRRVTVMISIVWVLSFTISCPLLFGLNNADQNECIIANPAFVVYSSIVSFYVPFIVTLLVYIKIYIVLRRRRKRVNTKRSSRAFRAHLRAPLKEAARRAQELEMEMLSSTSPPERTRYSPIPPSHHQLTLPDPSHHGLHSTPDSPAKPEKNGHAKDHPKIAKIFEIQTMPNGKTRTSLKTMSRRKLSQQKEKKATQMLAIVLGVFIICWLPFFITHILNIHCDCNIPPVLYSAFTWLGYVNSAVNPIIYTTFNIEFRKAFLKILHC
From the text: (§2) Supplement jm3c00155_si_002.xlsx, sheet "SAFETYScan" | column: RC50 (uM); Hill; Max Response

[3] = biological target: HTR2A (Homo sapiens, UniProt P28223); assay: SAFETYscan Calcium Flux HTR2A Agonist; type: cell-based
From the text: as §1

[4] = biological target: T1, DRD1 (Homo sapiens, UniProt P21728); assay: SAFETYscan cAMP DRD1 Agonist; type: cell-based
T1 sequence (P21728 whole entry): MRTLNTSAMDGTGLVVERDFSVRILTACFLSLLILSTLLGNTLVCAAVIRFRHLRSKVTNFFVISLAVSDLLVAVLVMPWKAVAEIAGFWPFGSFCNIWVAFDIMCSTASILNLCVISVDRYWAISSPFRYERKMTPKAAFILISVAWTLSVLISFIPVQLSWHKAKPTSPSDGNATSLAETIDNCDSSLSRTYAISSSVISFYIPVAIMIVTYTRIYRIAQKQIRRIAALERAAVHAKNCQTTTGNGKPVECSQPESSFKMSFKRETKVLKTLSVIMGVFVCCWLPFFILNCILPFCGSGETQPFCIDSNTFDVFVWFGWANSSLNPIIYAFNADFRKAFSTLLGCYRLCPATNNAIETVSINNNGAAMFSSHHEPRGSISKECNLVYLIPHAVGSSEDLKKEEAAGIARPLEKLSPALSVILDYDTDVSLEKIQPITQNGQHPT
From the text: as §1

[5] = biological target: ADORA2A (Homo sapiens, UniProt P29274); assay: SAFETYscan Calcium Flux ADORA2A Agonist; type: cell-based
Sequence of ADORA2A (P29274 whole entry): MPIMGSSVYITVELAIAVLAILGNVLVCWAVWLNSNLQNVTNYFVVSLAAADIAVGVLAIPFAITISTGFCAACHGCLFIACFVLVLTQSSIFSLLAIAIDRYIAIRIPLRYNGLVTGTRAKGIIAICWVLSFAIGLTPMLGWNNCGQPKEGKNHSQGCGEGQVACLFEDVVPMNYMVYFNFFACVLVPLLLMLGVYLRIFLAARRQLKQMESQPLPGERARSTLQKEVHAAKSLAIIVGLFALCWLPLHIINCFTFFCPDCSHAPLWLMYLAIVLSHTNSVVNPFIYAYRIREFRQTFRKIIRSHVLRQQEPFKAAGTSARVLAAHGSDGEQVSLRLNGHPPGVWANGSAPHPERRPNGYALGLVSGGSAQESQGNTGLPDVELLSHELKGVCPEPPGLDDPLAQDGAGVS
From the text: as §1

[6] = biological target: OPRM1 (Homo sapiens, UniProt P35372); assay: SAFETYscan cAMP OPRM1 Agonist; type: cell-based
Sequence of OPRM1 (P35372 whole entry): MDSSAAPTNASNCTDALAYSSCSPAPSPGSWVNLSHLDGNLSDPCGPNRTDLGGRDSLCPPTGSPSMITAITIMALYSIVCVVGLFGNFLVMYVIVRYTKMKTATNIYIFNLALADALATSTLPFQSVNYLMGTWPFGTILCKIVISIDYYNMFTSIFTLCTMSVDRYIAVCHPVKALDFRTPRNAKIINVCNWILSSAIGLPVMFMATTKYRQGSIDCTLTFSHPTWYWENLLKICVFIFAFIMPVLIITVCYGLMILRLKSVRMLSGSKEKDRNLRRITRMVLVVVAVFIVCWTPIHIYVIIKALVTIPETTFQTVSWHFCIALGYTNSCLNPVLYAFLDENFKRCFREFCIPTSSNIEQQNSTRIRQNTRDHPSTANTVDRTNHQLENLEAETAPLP
From the text: as §1

[7] = biological target: COX2 (Homo sapiens, UniProt P35354); assay: SAFETYscan Enzymatic COX2 Inhibitor; type: biochemical
Sequence of COX2 (P35354 18-604): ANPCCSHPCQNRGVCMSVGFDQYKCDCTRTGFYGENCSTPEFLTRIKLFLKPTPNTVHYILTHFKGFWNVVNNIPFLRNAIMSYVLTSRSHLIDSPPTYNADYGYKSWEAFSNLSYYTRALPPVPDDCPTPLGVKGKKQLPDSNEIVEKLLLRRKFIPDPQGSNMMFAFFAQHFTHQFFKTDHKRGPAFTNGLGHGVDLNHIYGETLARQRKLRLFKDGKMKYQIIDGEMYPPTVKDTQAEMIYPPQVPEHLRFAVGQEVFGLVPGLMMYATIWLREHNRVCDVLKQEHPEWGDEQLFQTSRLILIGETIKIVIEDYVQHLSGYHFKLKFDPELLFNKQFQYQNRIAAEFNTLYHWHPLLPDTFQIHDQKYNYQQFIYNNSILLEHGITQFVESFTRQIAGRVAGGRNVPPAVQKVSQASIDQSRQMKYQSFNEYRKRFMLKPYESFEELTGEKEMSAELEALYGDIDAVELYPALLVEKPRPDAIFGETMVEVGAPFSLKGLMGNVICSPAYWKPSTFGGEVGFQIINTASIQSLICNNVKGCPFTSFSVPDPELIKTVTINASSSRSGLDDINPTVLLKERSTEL
From the text: as §1

[8] = biological target: T2, BCL6-SMRT (NCOR2) corepressor protein-protein interaction (Homo sapiens, UniProt P41182); assay: NanoBRET cellular assay (HEK293T); type: cell-based
T2 construct: DNA encoding full length BCL6 and SMRT; expressed in transfected cells; host or cells: HEK293T
Procedure: Test compounds in DMSO or DMSO alone
concentration in 0.7% v/v DMSO final.
(also called NCOR2) corepressor protein-protein interaction. DNA encoding full length BCL6 and SMRT
fusion proteins BCL6-nanoLuc and SMRT-HaloTag, respectively. HEK293T cells were plated […] in T75
At the time of assay, compounds
dispensing (Labcyte Inc.). Frozen transfected HEK293T cells were thawed, centrifuged and freezing
(§3) DMSO final concentration.
(§4) After a short centrifugation the
(1st emission filter) / 450-80 nm (2nd emission filter). The % inhibition at each test concentration was
sigmoidal four-parameter logistic fit equation. […]

[9] = biological target: T1, DRD1; assay: SAFETYscan cAMP DRD1 Antagonist; type: cell-based
From the text: as §2

[10] = biological target: T3, CHRM2 (Homo sapiens, UniProt P08172); assay: SAFETYscan cAMP CHRM2 Antagonist; type: cell-based
T3 sequence (P08172 1-466): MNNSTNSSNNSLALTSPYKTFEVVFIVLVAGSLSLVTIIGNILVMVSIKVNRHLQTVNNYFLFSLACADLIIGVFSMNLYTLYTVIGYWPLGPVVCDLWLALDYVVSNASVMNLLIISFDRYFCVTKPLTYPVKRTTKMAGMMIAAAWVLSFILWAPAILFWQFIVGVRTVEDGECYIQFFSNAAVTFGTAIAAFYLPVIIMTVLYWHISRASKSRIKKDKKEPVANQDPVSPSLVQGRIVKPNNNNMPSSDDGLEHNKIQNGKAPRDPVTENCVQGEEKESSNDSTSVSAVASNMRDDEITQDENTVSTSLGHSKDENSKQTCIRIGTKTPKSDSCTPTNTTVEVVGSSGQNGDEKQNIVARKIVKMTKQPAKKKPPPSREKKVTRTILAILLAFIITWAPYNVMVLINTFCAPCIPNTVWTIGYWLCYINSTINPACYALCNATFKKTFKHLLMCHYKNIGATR
From the text: as §1

[11] = biological target: ADRB1 (Homo sapiens, UniProt P08588); assay: SAFETYscan cAMP ADRB1 Antagonist; type: cell-based
Sequence of ADRB1 (P08588 whole entry): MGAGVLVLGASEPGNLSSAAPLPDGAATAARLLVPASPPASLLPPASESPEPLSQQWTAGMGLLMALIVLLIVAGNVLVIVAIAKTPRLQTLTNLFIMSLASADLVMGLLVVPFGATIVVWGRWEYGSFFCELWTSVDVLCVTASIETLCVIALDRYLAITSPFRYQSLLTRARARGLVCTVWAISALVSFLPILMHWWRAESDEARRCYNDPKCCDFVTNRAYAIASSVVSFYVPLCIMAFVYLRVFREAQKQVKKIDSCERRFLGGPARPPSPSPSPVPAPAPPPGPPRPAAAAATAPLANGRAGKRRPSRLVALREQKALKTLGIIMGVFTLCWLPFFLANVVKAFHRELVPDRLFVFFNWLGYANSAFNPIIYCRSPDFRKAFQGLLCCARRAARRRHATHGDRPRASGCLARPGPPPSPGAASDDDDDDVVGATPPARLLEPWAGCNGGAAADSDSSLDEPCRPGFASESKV
From the text: as §2

[12] = tested on: HT; assay: 14-day cell proliferation assay, HT; type: cell-based; details: Homo sapiens, 14-day assay
From the text: as §3, §4
(1st emission filter) / 450-80 nm (2nd emission filter). The % inhibition at each test concentration was […]
sigmoidal four-parameter logistic fit equation.
2.3 Cell proliferation assay
Aldrich) supplemented with 10% FBS (Gibco). Compounds were initially dispensed into 96-well U-bottom […]
transferred onto the cells.
Assay plates containing cells
(Beckman Coulter). The volume of medium containing 2500 cells in the control well was calculated and this volume of cells was transferred from every well of the assay plates to the corresponding well of the fresh plates containing compound. After 14 days, CellTiter Glo reagent (Promega) was added to the medium in each well of the assay plate at a ratio of 1:2, mixed on a plate shaker, then incubated at room temperature for 10 minutes. Luminescence was measured using an Envision plate reader (Perkin Elmer) and the relative luminescence at each compound concentration, compared to DMSO alone, was calculated. GI50 were determined using a 4-parameter curve fit in Dotmatics (Bishops Stortford, UK).

[13] = biological target: HRH2 (Homo sapiens, UniProt P25021); assay: SAFETYscan cAMP HRH2 Antagonist; type: cell-based
Sequence of HRH2 (P25021 whole entry): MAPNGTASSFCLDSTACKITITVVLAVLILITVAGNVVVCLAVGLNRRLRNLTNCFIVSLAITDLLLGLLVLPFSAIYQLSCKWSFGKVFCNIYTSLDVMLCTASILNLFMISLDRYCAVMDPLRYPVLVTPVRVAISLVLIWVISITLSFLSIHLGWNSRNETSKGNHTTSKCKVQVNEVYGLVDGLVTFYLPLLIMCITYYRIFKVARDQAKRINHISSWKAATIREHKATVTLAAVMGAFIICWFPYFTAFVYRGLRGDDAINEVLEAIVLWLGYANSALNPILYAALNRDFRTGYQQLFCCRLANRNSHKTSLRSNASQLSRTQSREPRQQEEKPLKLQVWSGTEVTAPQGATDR
From the text: as §2

[14] = biological target: nAChR(a4/b2) (Homo sapiens, UniProt P17787+P43681); assay: SAFETYscan Ion Channel nAChR(a4/b2) Opener; type: cell-based
Sequence of nAChR(a4/b2) (P43681 29-627 limits assumed): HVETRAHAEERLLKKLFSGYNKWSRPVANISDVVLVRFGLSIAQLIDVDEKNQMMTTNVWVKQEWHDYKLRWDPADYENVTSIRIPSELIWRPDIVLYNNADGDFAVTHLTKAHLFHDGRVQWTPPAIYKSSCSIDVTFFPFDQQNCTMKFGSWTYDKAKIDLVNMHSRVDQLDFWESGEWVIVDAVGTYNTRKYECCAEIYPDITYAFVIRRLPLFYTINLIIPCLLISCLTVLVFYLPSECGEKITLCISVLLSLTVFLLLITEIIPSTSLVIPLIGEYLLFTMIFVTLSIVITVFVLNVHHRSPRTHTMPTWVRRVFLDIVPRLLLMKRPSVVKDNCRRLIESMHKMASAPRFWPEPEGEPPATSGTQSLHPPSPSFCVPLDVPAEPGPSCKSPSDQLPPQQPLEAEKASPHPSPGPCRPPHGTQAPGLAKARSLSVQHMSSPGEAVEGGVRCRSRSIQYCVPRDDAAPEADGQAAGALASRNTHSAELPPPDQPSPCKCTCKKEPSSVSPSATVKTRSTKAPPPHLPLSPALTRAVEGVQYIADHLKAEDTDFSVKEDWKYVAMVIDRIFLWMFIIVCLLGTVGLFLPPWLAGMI
Sequence of nAChR(a4/b2) (P17787 26-502): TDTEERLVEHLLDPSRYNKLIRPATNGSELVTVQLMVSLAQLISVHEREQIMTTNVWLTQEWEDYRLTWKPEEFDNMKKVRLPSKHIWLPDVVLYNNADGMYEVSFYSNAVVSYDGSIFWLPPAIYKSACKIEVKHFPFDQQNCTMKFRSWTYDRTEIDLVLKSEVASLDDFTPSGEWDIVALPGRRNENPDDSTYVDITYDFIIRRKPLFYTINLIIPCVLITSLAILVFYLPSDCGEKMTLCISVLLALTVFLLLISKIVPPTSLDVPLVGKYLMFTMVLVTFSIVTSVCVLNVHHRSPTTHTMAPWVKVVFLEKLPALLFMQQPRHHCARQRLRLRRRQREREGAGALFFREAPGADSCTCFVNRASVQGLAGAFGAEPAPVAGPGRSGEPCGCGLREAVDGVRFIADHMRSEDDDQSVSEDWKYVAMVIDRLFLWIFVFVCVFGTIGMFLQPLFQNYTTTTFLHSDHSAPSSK
From the text: as §1

[15] = biological target: CHRM3 (Homo sapiens, UniProt P20309); assay: SAFETYscan Calcium Flux CHRM3 Antagonist; type: cell-based
Sequence of CHRM3 (P20309 whole entry): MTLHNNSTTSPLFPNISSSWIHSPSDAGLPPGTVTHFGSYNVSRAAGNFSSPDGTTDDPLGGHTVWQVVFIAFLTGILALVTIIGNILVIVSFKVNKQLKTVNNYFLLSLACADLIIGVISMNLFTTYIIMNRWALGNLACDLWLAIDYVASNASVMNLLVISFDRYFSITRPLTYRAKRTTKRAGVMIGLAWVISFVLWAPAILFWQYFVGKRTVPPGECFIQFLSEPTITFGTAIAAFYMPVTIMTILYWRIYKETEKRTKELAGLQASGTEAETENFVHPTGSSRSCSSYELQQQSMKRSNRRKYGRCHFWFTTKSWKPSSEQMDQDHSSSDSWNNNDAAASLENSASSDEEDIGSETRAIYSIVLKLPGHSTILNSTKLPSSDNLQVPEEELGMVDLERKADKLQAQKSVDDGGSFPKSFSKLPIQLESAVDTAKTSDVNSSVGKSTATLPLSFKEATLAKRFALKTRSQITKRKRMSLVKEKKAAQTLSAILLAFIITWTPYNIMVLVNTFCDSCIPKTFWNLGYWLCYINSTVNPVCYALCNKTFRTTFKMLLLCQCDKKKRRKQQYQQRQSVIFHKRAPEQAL
From the text: as §1

`Cn1c(=O)c2c(c3cc(Nc4ccnc(F)c4Cl)ccc31)N[C@@H](C1CC1)C(F)(F)CO2` [compound 17, (S)-10-((3-chloro-2-fluoropyridin-4-yl)amino)-2-cyclopropyl-3,3-difluoro-7-methyl-1,2,3,4-tetrahydro-[1,4]oxazepino[2,3-c]quinolin-6(7H)-one] was tested, and the IC50 [1] was > 10 µM, the Emax ([1]; DAT, Transporter, Blocker, read-out: Max Response) was 0% and the EC50 [2] was 3.5 µM. For the same compound, the Hill ([2]; DRD2S, cAMP, Agonist) was 1.25, the Emax ([2]; DRD2S, cAMP, Agonist, read-out: Max Response) was 72.1% and the EC50 [3] was > 10 µM. For the same compound, the Emax ([3]; HTR2A, Calcium Flux, Agonist, read-out: Max Response) was 2.33%, the EC50 [4] was > 10 µM and the Emax ([4]; DRD1, cAMP, Agonist, read-out: Max Response) was 0%. The Emax ([5]; read-out: Max Response) was 0%, the EC50 ([5]; read-out: RC50 (EC50)) was > 10 µM and the EC50 [6] was > 10 µM. The Emax ([6]; OPRM1, cAMP, Agonist, read-out: Max Response) was 13.3%, the Emax ([7]; read-out: Max Response) was 0% and the IC50 ([7]; read-out: RC50 (IC50)) was > 10 µM. The IC90 ([8]; HEK-293T, Table S2, read-out: BCL6 NanoBRET IC90 individual replicates) was 140 nM, the calculated free (unbound) cellular IC90 ([8]; HEK-293T, calculated free cellular IC90 from NanoBRET assay) was 48 nM and the IC90 ([8]; HEK-293T, geometric mean of at least three replicates, read-out: NanoBRET IC90) was 140 nM. The “BCL6 NanoBRET pIC50 mean” value ([8]; Table S2) was 7.6643, the IC50 ([8]; geometric mean of at least three replicates, read-out: NanoBRET IC50) was 22 nM and the IC50 ([8]; single replicates, Table S2, listed as CCT374705, 17, read-out: BCL6 NanoBRET IC50 individual replicates) was 21.8 nM and 22.2 nM. The IC50 ([8]; single replicates, Table S2, read-out: BCL6 NanoBRET IC50 individual replicates) was 25.1 nM and 17.3 nM and 24.3 nM and 18.4 nM and 20.9 nM and 24.2 nM and 77.1 nM and 15.6 nM and 11.1 nM and 15.4 nM and 40.7 nM and 25.3 nM and 23.2 nM and 13 nM and 32.6 nM and 29.5 nM and 10.1 nM and 12.1 nM and 44.2 nM and 19.7 nM and 14.6 nM and 25.2 nM, the IC50 ([8]; supplement, read-out: BCL6 NanoBRET IC50 Geometric Mean) was 21.7 nM and the IC50 [9] was 2580 nM. The Hill ([9]; DRD1, cAMP, Antagonist) was 1.27, the Emax ([9]; DRD1, cAMP, Antagonist, read-out: Max Response) was 82.7% and the IC50 [10] was > 10 µM. For the same compound, the Emax ([10]; CHRM2, cAMP, Antagonist, read-out: Max Response) was 0%, the Hill [11] was 1.19 and the Emax ([11]; read-out: Max Response) was 88.7%. For the same compound, the IC50 ([11]; read-out: RC50 (IC50)) was 1600 nM, the GI50 [12] was 545 nM and the Hill [13] was 1.03. The Emax ([13]; read-out: Max Response) was 65.2%, the IC50 ([13]; read-out: RC50 (IC50)) was 4.76 µM and the EC50 [14] was > 10 µM. The Emax ([14]; nAChR(a4/b2), Ion Channel, Opener, read-out: Max Response) was 3.37%, the IC50 [15] was > 10 µM and the Emax ([15]; CHRM3, Calcium Flux, Antagonist, read-out: Max Response) was 1.21%.
